Data from ChEMBL document CHEMBL1141026, “Synthesis, in vitro antitrypanosomal and antibacterial activity of phenoxy, phenylthio or benzyloxy substituted quinolones” (Bioorg Med Chem Lett, 2009).
Converted amounts (≈) assume the structure as drawn.

Key:
[1] = tested on: Trypanosoma cruzi; assay: Antitrypanosomal activity against trypomastigotes of Trypanosoma cruzi Tulahuen C2C4 containing lacZ gene in rat L6 cells after 4 days; assay type: functional, organism-based; conditions: L6, 96 h
[2] = tested on: Shigella boydii; assay: Antibacterial activity against Shigella boydii after 24 hrs by agar dilution method; assay type: functional
[3] = tested on: Shigella flexneri; assay: Antibacterial activity against Shigella flexneri after 24 hrs by agar dilution method; assay type: functional
[4] = tested on: Proteus mirabilis; assay: Antibacterial activity against Proteus mirabilis after 24 hrs by agar dilution method; assay type: functional
[5] = tested on: Proteus vulgaris; assay: Antibacterial activity against Proteus vulgaris after 24 hrs by agar dilution method; assay type: functional
[6] = tested on: Pseudomonas aeruginosa; assay: Antibacterial activity against Pseudomonas aeruginosa after 24 hrs by agar dilution method; assay type: functional
[7] = tested on: Morganella morganii; assay: Antibacterial activity against Morganella morganii after 24 hrs by agar dilution method; assay type: functional
[8] = tested on: Klebsiella pneumoniae; assay: Antibacterial activity against Klebsiella pneumoniae after 24 hrs by agar dilution method; assay type: functional
[9] = tested on: Salmonella enterica subsp. enterica; assay: Antibacterial activity against Salmonella enteritidis after 24 hrs by agar dilution method; assay type: functional, Salmonella enterica subsp. enterica serovar Enteritidis
[10] = tested on: Salmonella typhimurium; assay: Antibacterial activity against Salmonella Typhimurium after 24 hrs by agar dilution method; assay type: functional, Salmonella enterica subsp. enterica serovar Typhimurium; conditions: Salmonella enterica
[11] = tested on: Citrobacter freundii; assay: Antibacterial activity against Citrobacter freundii after 24 hrs by agar dilution method; assay type: functional
[12] = tested on: Aeromonas hydrophila; assay: Antibacterial activity against Aeromonas hydrophila after 24 hrs by agar dilution method; assay type: functional
[13] = tested on: Serratia marcescens; assay: Antibacterial activity against Serratia marcescens after 24 hrs by agar dilution method; assay type: functional
[14] = tested on: Staphylococcus aureus; assay: Antibacterial activity against Staphylococcus aureus after 24 hrs by agar dilution method; assay type: functional
[15] = tested on: Streptococcus pneumoniae; assay: Antibacterial activity against Streptococcus pneumoniae after 24 hrs by agar dilution method; assay type: functional
[16] = tested on: Staphylococcus; assay: Antibacterial activity against Staphylococcus albus after 24 hrs by agar dilution method; assay type: functional
[17] = tested on: Staphylococcus epidermidis; assay: Antibacterial activity against Staphylococcus epidermidis after 24 hrs by agar dilution method; assay type: functional
[18] = tested on: Enterococcus faecalis; assay: Antibacterial activity against Enterococcus faecalis after 24 hrs by agar dilution method; assay type: functional
[19] = tested on: Streptococcus; assay: Antibacterial activity against gamma-streptococcus after 24 hrs by agar dilution method; assay type: functional
[20] = tested on: Escherichia coli; assay: Antibacterial activity against Escherichia coli after 24 hrs by agar dilution method; assay type: functional
[21] = tested on: Shigella sonnei; assay: Antibacterial activity against Shigella sonnei after 24 hrs by agar dilution method; assay type: functional
[22] = tested on: Trypanosoma cruzi; assay: Antitrypanosomal activity against Trypanosoma cruzi amastigotes at 250 uM
[23] = tested on: Trypanosoma cruzi; assay: Antitrypanosomal activity against Trypanosoma cruzi DM28 epimastigotes at 200 ug/ml after 96 hrs; assay type: functional

## CCn1cc(C(=O)O)c(=O)c2cc(F)c(Oc3ccc(C)cc3)c(Oc3ccc(C)cc3)c21
[1]
  IC50: 19.4 µg/mL (≈ 43.4 µM)

## CCn1cc(C(=O)O)c(=O)c2cc(F)c(Oc3ccc(Cl)cc3Cl)c(Oc3ccc(Cl)cc3Cl)c21
[1]
  IC50: 12.7 µg/mL (≈ 22.8 µM)

## CCn1cc(C(=O)O)c(=O)c2cc(F)c(Sc3ccc(F)cc3)c(Sc3ccc(F)cc3)c21
[1]
  IC50: 6.2 µg/mL (≈ 12.7 µM)

## CCn1cc(C(=O)O)c(=O)c2cc(F)c(Sc3ccccc3)c(Sc3ccccc3)c21
[1]
  IC50: 19.3 µg/mL (≈ 42.7 µM)

## CCn1cc(C(=O)O)c(=O)c2cc(F)c(Oc3ccc(C)cc3)c(F)c21
[2]
  MIC: 6.25 µg/mL (≈ 17.4 µM)
[3]
  MIC: > 25 µg/mL
[4]
  MIC: 25 µg/mL (≈ 69.6 µM)
[5]
  MIC: > 25 µg/mL
[6]
  MIC: > 25 µg/mL
[7]
  MIC: 25 µg/mL (≈ 69.6 µM)
[8]
  MIC: 6.25 µg/mL (≈ 17.4 µM)
[9]
  MIC: 25 µg/mL (≈ 69.6 µM)
[10]
  MIC: 25 µg/mL (≈ 69.6 µM)
[11]
  MIC: 12.5 µg/mL (≈ 34.8 µM)
[12]
  MIC: 25 µg/mL (≈ 69.6 µM)
[13]
  MIC: > 25 µg/mL
[1]
  IC50: 18.3 µg/mL (≈ 50.9 µM)
[14]
  MIC: 0.78 µg/mL (≈ 2.17 µM)
[15]
  MIC: 0.39 µg/mL (≈ 1.09 µM)
[16]
  MIC: 12.5 µg/mL (≈ 34.8 µM)
[17]
  MIC: 6.25 µg/mL (≈ 17.4 µM)
[18]
  MIC: > 25 µg/mL
[19]
  MIC: > 25 µg/mL
[20]
  MIC: 25 µg/mL (≈ 69.6 µM)
[21]
  MIC: 12.5 µg/mL (≈ 34.8 µM)

## CCn1cc(C(=O)O)c(=O)c2cc(Oc3ccc(C)cc3)c(Oc3ccc(C)cc3)c(Oc3ccc(C)cc3)c21
[1]
  IC50: > 90 µg/mL

## O=C(O)c1cn(C2CC2)c2c(Sc3ccccc3)c(Sc3ccccc3)c(F)cc2c1=O
[1]
  IC50: 17.8 µg/mL (≈ 38.4 µM)

## CCn1cc(C#N)c(=O)c2cc(F)c(Oc3ccccc3)c(Oc3ccccc3)c21
[1]
  IC50: > 90 µg/mL

## C=Cn1cc(C(=O)O)c(=O)c2cc(F)c(OCc3ccccc3)c(OCc3ccccc3)c21
[1]
  IC50: 6.2 µg/mL (≈ 13.9 µM)

## CCn1cc(C(=O)OC)c(=O)c2cc(F)c(OCc3ccccc3)c(OCc3ccccc3)c21
[1]
  IC50: 3.8 µg/mL (≈ 8.23 µM)

## CCn1cc(C(=O)O)c(=O)c2cc(F)c(Oc3ccccc3)c(Oc3ccccc3)c21
[1]
  IC50: > 90 µg/mL

## CCn1cc(C(=O)O)c(=O)c2cc(F)c(Sc3ccc(Cl)cc3)c(Sc3ccc(Cl)cc3)c21
[1]
  IC50: 16.3 µg/mL (≈ 31.3 µM)

## O=C(Cn1ccnc1[N+](=O)[O-])NCc1ccccc1 [BENZNIDAZOLE]
[1]
  IC50: 0.83 µg/mL (≈ 3.19 µM)

## O=C(O)c1cn(C2CC2)c2cc(N3CCNCC3)c(F)cc2c1=O [CIPROFLOXACIN]
[22]
  Activity: 26%

## CCn1cc(C(=O)O)c(=O)c2cc(F)c(N3CCNC(C)C3)c(F)c21 (stereo not given) [LOMEFLOXACIN]
[2]
  MIC: 0.098 µg/mL (≈ 0.279 µM)
[3]
  MIC: 0.78 µg/mL (≈ 2.22 µM)
[4]
  MIC: 0.39 µg/mL (≈ 1.11 µM)
[5]
  MIC: 0.78 µg/mL (≈ 2.22 µM)
[6]
  MIC: 3.13 µg/mL (≈ 8.91 µM)
[7]
  MIC: 0.195 µg/mL (≈ 0.555 µM)
[8]
  MIC: 0.098 µg/mL (≈ 0.279 µM)
[9]
  MIC: 0.098 µg/mL (≈ 0.279 µM)
[10]
  MIC: 0.195 µg/mL (≈ 0.555 µM)
[11]
  MIC: 0.098 µg/mL (≈ 0.279 µM)
[12]
  MIC: 6.25 µg/mL (≈ 17.8 µM)
[13]
  MIC: 0.195 µg/mL (≈ 0.555 µM)
[14]
  MIC: 0.78 µg/mL (≈ 2.22 µM)
[15]
  MIC: 0.195 µg/mL (≈ 0.555 µM)
[16]
  MIC: 3.13 µg/mL (≈ 8.91 µM)
[17]
  MIC: 0.78 µg/mL (≈ 2.22 µM)
[18]
  MIC: 25 µg/mL (≈ 71.2 µM)
[19]
  MIC: 6.25 µg/mL (≈ 17.8 µM)
[20]
  MIC: 0.098 µg/mL (≈ 0.279 µM)
[21]
  MIC: 0.098 µg/mL (≈ 0.279 µM)

## CCn1cc(C(=O)O)c(=O)c2ccc(C)nc21 [NALIDIXIC ACID]
[23]
  Activity: 60%
